The record followed here is a melting point compilation (Tetko et al.; mined from patent text by program, amines drawn as free bases though some values may be those of a salt).

With `C(#CCOCC#CCCn1cnc2cnc3ccccc3c21)CCn1cnc2cnc3ccccc3c21`, the melting point was in the range of 124 to 126 °C. The value for `COc1ccc2c(c1)c(OC(C)C)c(C(=O)O)n2C` was 110 to 112 °C; that for `COC(=O)[C@H](Cc1ccccc1)NC(=S)Cc1ccc(C)cc1` was 84 to 86 °C; that for `CC(C)c1cccc(C(C)C)c1NC(=O)C(Cc1ccccc1)NC(=O)NC(C)(C)C` (stereo not given) was 241 to 242 °C. `CCc1nc(C)cn1-c1cc2c(cc1Cl)[nH]c(=O)c1n[nH]c(=O)n12` registered a melting point of 273 to 275 °C. Turning to `COC(=O)c1cc(O)nc2ccccc12`, the melting point was 240 to 241 °C. In turn, `OC1(c2ccc(Cl)c(Cl)c2)CCN(CCCOc2ccc(Cl)c(Cl)c2)CC1` registered a melting point of 118 °C. For `COc1ccc(S(=O)(=O)N2C(=O)C(O[Si](C)(C)C)(c3ccccc3F)c3cc(Cl)ccc32)c(OC)c1` (stereo not given), the melting point was 184 to 186 °C.

As for `O=c1[nH]c2ccc([C@H]3CC[C@H](NCCS(=O)(=O)c4ccccc4)CC3)cc2o1`, the melting point was 202 to 208 °C. The value for `COc1cccc(CNC(=O)c2nc3ccc(F)c(OCCc4ccc(C(=O)O)cc4)c3c(=O)[nH]2)c1` was 227 to 229 °C. The value for `COc1ccc2c(c1)c(CC(=O)N(O)C(C)C)c(C)n2C(=O)c1ccc(Cl)cc1` was 198 to 199 °C; that for `O=C(O)CCCCCc1c(-c2cccnc2)[nH]c2ccc(O)cc12` was 185 to 187 °C. `CC1(C)Nc2ccc3c(c2N1)C(=O)c1ccccc1C3=O` returned a melting point of 235 to 237 °C. The compound `C=C(C=O)c1ccc(C)cc1[N+](=O)[O-]` came in with a melting point of 58.5 to 60 °C. Turning to `COc1cc(NC(=O)Oc2ccccc2)ccc1S(=O)(=O)n1c(=O)n(C2CCCCCC2)c2cc(Cl)ccc21`, the melting point came to 234 °C.

`CC(=O)OC1CSC(Sc2cc(C(F)(F)F)cc(C(F)(F)F)c2)C(OC(C)=O)C1OC(C)=O` (stereo not given) came in with a melting point of 201 °C. For `CCCCCCCCCCCCCCCCNc1ccc(C(=O)OCCCO)cc1`, the melting point was in the range of 67 to 69 °C. The value for `COC(=O)c1nc(C)c2[nH]c3ccccc3c2c1I` was 280 to 286 °C; that for `Nc1ccc(-c2nc(C(=O)Nc3nccs3)c(-c3ccc(C(F)(F)F)cc3)[nH]2)cc1` was 175 to 177 °C. In the case of `CC1(C)SCC(CO)S1` (stereo not given), the melting point is 45 to 50 °C. On to `COc1cc2[nH]c(SCc3nccc(N4CCOCC4)c3F)nc2cc1C`, for which the melting point fell in the range of 124 to 126 °C. `O=C(O)C1=Cc2ccc(O)cc2CC1` returned a melting point of 195 to 197 °C. Consider `Cc1cccc(C)c1CO`, for which the melting point worked out at 84 °C. For the compound `NCc1ccccc1C(=O)N[C@H]1CN(S(=O)(=O)O)C1=O`, the melting point was in the range of 162 to 165 °C.

Compound `CO/C=C(/C(=O)OC)c1csc(C(=O)c2ccccc2)c1` returned a melting point of 82 to 84 °C. `O=C(O)C(Cl)(Cl)CCCCCCCCCCCCS(=O)c1ccccc1` (stereo not given) displayed a melting point of 68 °C. The result for `O=C(O)Cc1cccc(F)c1OCCc1ccccc1` reads 74 to 75 °C; that for `CSc1sc(C(=O)N(C)C)c2c1-c1oncc1C(C)(C)C2`, 113 to 115 °C; that for `CN1C(=O)CCC2(C)c3ccc(Sc4ccccc4F)cc3CCC12` (single isomer, unassigned; (+)), 100 to 103 °C.

With `Brc1ccc(-c2ccc(C=CC3COC4(CCCCC4)OO3)cc2)cc1` (stereo not given), the melting point fell in the range of 118 to 120 °C. On to `CCN(CC)CCNC(=O)Cn1c(-c2ccc(Cl)cc2)nc2cccnc21`, for which the melting point lay in the range of 142 to 143 °C. For the compound `Cc1nnc(-c2ccccn2)[nH]c1=O`, the melting point is 299 to 300 °C. Take `O=c1[nH]c(Cc2ccccc2)no1`: the melting point lay in the range of 114 to 116 °C. For `Cc1cccc(-c2nc(C(C)C)[nH]c2-c2ccc(F)c(-c3cnn(C(C)C)c3)c2)n1`, the melting point is 84 to 85 °C. The value for `COc1ccc(CC(C)=O)cc1SC` was 74 to 75 °C. In the case of `COc1ccccc1CNC(=O)c1[nH]c2ccc(Cl)cc2c1S(=O)(=O)c1ccccc1`, the melting point lay within 235 to 237 °C. `CNc1cc(Cl)c(OC)c([N+](=O)[O-])c1OC` had a melting point of 57 °C. On to `CS(=O)(=O)c1ccc(-c2cnn(CC(F)(F)F)c(=O)c2Sc2ccc(F)cc2)cc1`, for which the melting point lay in the range of 182 to 185 °C. `NS(=O)(=O)c1cccc(-c2cn(-c3nc(-c4ccc(F)c(F)c4)cc(C(F)(F)F)n3)cn2)c1` yielded a melting point of 242 °C. `O=CNCc1nc2ccccc2o1` had a melting point of 98 to 99 °C.

`CCOC(=S)Nc1cccc(Cl)c1` returned a melting point of 78 to 79 °C. `COC(=O)c1cc2c3ccccc3n(C)c2s1` registered a melting point of 134 °C.

With `C=CCN1C(=O)C(C)N(c2ccc(OCc3ccccc3)cc2)C1=S` (stereo not given), the melting point lay within 88 to 90 °C. `CCc1ccc(C(=O)O)c2ccccc12`: the melting point fell in the range of 125 to 127 °C.

`O=C(O)CC(O)(CC(=O)O)C(F)(F)F` came in with a melting point of 102 to 105 °C. `CC1(C)CC(=O)c2c(S(C)(=O)=O)sc(-c3cc[nH]n3)c2C1`: the melting point is 213 to 216 °C. In turn, `Cc1ccncc1-c1nc(-c2ccc(S(N)(=O)=O)cc2)cs1` had a melting point of 219 °C. In turn, `Cc1cc(-n2cccn2)c2cccc(OCc3c(Cl)ccc(S(=O)(=O)N4CCOCC4)c3Cl)c2n1` gave a melting point of 178 °C.

`CSc1ccc(C2=C(c3ccccc3)C(=O)OC2)cc1F` displayed a melting point of 159 to 160 °C. `CN(C)C=NC(C#N)=CN(C)C` showed a melting point of 78 to 81 °C. The value for `O=C1Nc2ccc([N+](=O)[O-])cc2C1c1ncnc2nn(C3CCCCC3)cc12` (stereo not given) was 301 to 304 °C.

As to `CCC1SC(=O)N(Cc2ccc(NC(=O)C(F)(F)F)cc2)N=C1c1ccc(OC)c(OC)c1` (stereo not given), the melting point worked out at 124 °C.

Turning to `N#CCc1coc2ccc3c(c12)C=CCO3`, the melting point lay in the range of 99 to 101 °C. Consider `Cn1cncc1C(O)(c1ccc(F)cc1)c1ccc2c(c1)C(c1cccc(Cl)c1)n1nnnc1N2` (stereo not given), for which the melting point was determined as 180 °C. Compound `O=C(Nc1cccc(C(F)(F)F)c1)C(=O)N1CCC(Cc2ccc(F)cc2)CC1` displayed a melting point of 113 to 115 °C.

For the compound `CCCCOc1cc(C(=O)O)cc(NC(C)=O)c1C(=O)c1ccccc1`, the melting point was in the range of 177 to 178 °C.

As for `CC(C)Cn1c(OCc2ccccc2)noc1=O`, the melting point lay within 53 to 60 °C. Compound `COc1ccc(C2(CCN3CCC(O)(c4nc5ccccc5n4Cc4ccc(F)cc4)CC3)CCN(C(=O)c3cc(OC)c(OC)c(OC)c3)C2)cc1OC` (stereo not given) returned a melting point of 110 to 120 °C. On to `CC(CNS(=O)(=O)c1ccc(-c2ccccn2)s1)N1CCC(Oc2ccc(F)c(F)c2)CC1` (stereo not given), for which the melting point lay within 153 to 154 °C. In turn, `CSc1cc(C)nc(SC)c1NC(=O)CCCSc1nc2ccccc2o1` gave a melting point of 149 to 150 °C. `Cc1ccc(NS(=O)(=O)c2ccc(N3CCNC3=O)cc2)cc1C` returned a melting point of 206 to 208 °C. Take `CC(C)(C)c1cc(NC(=S)NCc2ccc(N)cc2)cc(C(C)(C)C)c1O`: the melting point lay within 167 to 169 °C.

For the compound `Cc1ccc2ccn(CC(C)O)c2c1` (racemic), the melting point lay in the range of 65 to 69 °C. For `C=CCOc1ccc2c(C)cc(=O)oc2c1C`, the melting point was in the range of 107 to 108 °C.

For `O=C(O)c1cn(-c2ccc(F)cc2)c2c(F)c(N3CCC(n4ccnn4)C3)c(F)cc2c1=O` (stereo not given), the melting point was 303 °C.

The compound `Cc1cccc(Nn2cnc(C)c2C)c1` showed a melting point of 144 °C. In turn, `O=C(OC1CCCCCCCCCCC1)c1ccccc1C(=O)OC1CCCCCCCCCCC1` returned a melting point of 66 to 68 °C. Regarding `CCOC(=O)c1cc2cc(F)cnc2n1Cc1ccncc1`, the melting point was in the range of 236 to 237 °C. The result for `O=C(N[C@H]1CC[C@@H](C(=O)Oc2ccc3c(c2)CCC3)CC1)OCc1ccccc1` reads 68 to 69 °C; that for `OCCc1cn2ccccc2n1`, 120 to 127 °C; that for `CCCN(CCC)C(=O)COc1cc(C)nc(-c2ccccc2)n1`, 68 to 69 °C. Take `COc1ccccc1N1CCN(C(=O)NCCN(C)C)CC1`: the melting point was 98 to 100 °C. In the case of `C=CCn1c(-c2cccnc2)nn(CN2CCN(c3cccc4c3OCCO4)CC2)c1=S`, the melting point lay in the range of 122 to 127 °C. For `COc1cc(NC(=O)CC#N)cc(OC)c1OC`, the melting point lay in the range of 146 to 147 °C. For `Clc1ccc(-c2ccccc2OCC2CO2)nn1` (stereo not given), the melting point was in the range of 118 to 119 °C. The result for `Cc1cccc(CNc2ncccc2[N+](=O)[O-])n1` reads 132 °C; that for `CC(C)(C)OC(=O)NCC(CCn1ccc(=O)[nH]c1=O)COC(c1ccccc1)(c1ccccc1)c1ccccc1` (stereo not given), 86 to 88 °C. `Cc1nc(NC(=O)c2cnn3c(C(F)(F)F)cc(-c4ccc(C(F)(F)F)cc4)nc23)sc1S(=O)(=O)NCCO` yielded a melting point of 166 °C. `CCc1csc2[nH]c(=O)c(=O)[nH]c12`: the melting point is above 300 °C.

Turning to `O=C(CS(=O)(=O)c1ccccc1)c1ccccn1`, the melting point lay within 101 to 103 °C. The value for `Cc1cnc(Cl)c(C(=O)N(CCO)Cc2cc(C(F)(F)F)cc(C(F)(F)F)c2)c1-c1ccccc1` was 146 to 148 °C; that for `CCCC12CCC(=O)C=C1c1c(cc(OC)c(Cl)c1Cl)O2` (stereo not given) was 172 to 173 °C; that for `Cc1cc2c(cc1Oc1ccc(C(=O)O)cc1)C(C)(C)CCC2(C)C` was 208 to 210 °C. In turn, `CC(C)c1cccc(C(C)C)c1NC(=O)CC1c2ccccc2Oc2ccccc21` returned a melting point of 231 to 232 °C. Compound `N#Cc1cc(S(=O)(=O)C(F)(F)F)[nH]c1-c1ccc(Cl)cc1` returned a melting point of 228 to 230 °C. The result for `COc1ccc(C(=O)NCCCCCCCCNC(=O)c2ccc(OC)cc2)cc1` reads 175 to 176 °C. For `CCOC(=O)c1cn(CC)c2cc(OS(=O)(=O)C(F)(F)F)c(F)cc2c1=O`, the melting point is 83 to 85 °C. For `CC(=O)Nc1ccc(SCCCCNS(=O)(=O)c2ccc(C)cc2)cc1`, the melting point lay within 104 to 105 °C. The value for `CCCCCCCCCCCc1cc2cc(C(=O)OCC)ccc2[nH]1` was 76 to 77 °C; that for `O=S(=O)(c1ccc(Cl)cc1)C(c1cc(F)ccc1F)c1cc(NCCOCCO)ncc1Cl` (stereo not given) was 113 to 115 °C.

By melting point is commonly meant the temperature, or range, at which the solid turns liquid.
